Measurements as given in patent US9561220B2, “Group of alkaloids, the novel autophagic enhancers for treatment of cancers and neurodegenerative conditions thereof” (Macau University of Science and Technology, priority 2014, dated 2017).

Test system: panel of human cancer cells (HeLa, MCF-7, HepG2, Hep3B, H1299, A549, PC3)
Experiment: cells
Type: cell-based
Details: Homo sapiens, 72 h, read-out: mean IC50 value (cell cytotoxicity)
Method: The test compounds of liensinine, isoliensinine, dauricine, cepharanthine, hernandezine and thalidezine were dissolved in DMSO at a final concentration of 100 mmol/L and stored at −20° C. Cytotoxicity was assessed using the 3-(4,5-dimethylthiazol-2-yl)-2,5-diphenyltetrazolium bromide assay as described previously. 4000-8000 HeLa (human cervical cancer), MCF-7 (human breast cancer), HepG2 (human liver cancer), Hep3B (human liver cancer), H1299 (human lung cancer), A549 (human lung cancer), PC3 (human prostate cancer) and LO2 (human normal liver) cells were seeded on 96-well plates per well. After overnight pre-incubation, the cells were exposed to different concentrations of liensinine, isoliensinine, dauricine, cepharanthine, hernandezine and thalidezine (0.039-100 μmol/L) for 3 days. Specifically, the following concentrations are used for all of the above alkaloids: […], 0.039 μmol/L. Subsequently, 10 μL of MTT reagents was added to each well and incubated at 37° C. for 4 hours followed by the addition of 100 μL solubilization buffer (10% SDS in 0.01 mol/L HCl) and overnight incubation. Absorbance at 585 nm was determined from each well on the following day. The percentage of cell viability was calculated using the following formula: Cell viability (%)=Cells number treated/Cells number DMSO control×100. Data was obtained from three independent experiments.

COc1ccc2cc1Oc1ccc(cc1)C[C@H]1c3c(cc4c(c3Oc3cc5c(cc3OC)CCN(C)[C@@H]5C2)OCO4)CCN1C [cepharanthine]
IC50: 4.52 to 61.8 µM
